Tests used:
LigE = target: T1, LigE (Sphingobium sp. SYK-6, UniProt P27457); test: chiral HPLC of MPHPV conversion; type: biochemical; settings: 400 µM racemic MPHPV; 5 mM GSH; 50 mM Tris-HCl pH 7.5; 30 °C; 60 min
T1 construct: full length in pET-16b (pET08660), His-tagged, E. coli BL21(DE3), His SpinTrap purified
T1 sequence (P27457 1-281 limits assumed): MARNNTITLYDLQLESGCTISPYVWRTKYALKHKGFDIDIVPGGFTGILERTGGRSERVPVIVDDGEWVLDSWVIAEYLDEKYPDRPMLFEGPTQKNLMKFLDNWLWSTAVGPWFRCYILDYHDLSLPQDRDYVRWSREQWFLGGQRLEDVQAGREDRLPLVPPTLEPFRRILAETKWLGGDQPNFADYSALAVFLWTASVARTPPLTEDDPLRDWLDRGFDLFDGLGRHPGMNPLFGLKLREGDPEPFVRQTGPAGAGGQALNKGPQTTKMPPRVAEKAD

LigF = target: T2, LigF (Sphingobium sp. SYK-6, UniProt P30347); test: chiral HPLC of MPHPV conversion; type: biochemical; settings: 400 µM racemic MPHPV; 5 mM GSH; 50 mM Tris-HCl pH 7.5; 30 °C; 60 min
T2 construct: full length in pET-16b (pET08650), His-tagged, E. coli BL21(DE3), His SpinTrap purified
T2 sequence (P30347 1-257): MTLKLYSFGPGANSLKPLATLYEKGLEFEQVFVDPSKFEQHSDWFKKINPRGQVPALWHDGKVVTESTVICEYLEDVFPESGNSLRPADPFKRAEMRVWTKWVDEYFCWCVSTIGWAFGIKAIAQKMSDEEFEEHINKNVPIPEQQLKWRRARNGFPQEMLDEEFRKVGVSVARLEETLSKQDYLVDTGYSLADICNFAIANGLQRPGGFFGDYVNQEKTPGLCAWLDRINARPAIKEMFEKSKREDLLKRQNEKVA

SMILES	chiral HPLC of MPHPV conversion (LigE)	chiral HPLC of MPHPV conversion (LigF)
COc1cc(C(=O)[C@@H](CO)Oc2ccccc2OC)ccc1O [(βR)-MPHPV]	LigF and LigE completely converted (βS)-MPHPV and (βR)-MPHPV, respectively	
COc1cc(C(=O)[C@H](CO)Oc2ccccc2OC)ccc1O [(βS)-MPHPV]		LigF and LigE completely converted (βS)-MPHPV and (βR)-MPHPV, respectively
